In experiment [1] the test system is SK-N-AS. Description: MTT cytotoxicity assay (% kill), SK-N-AS. In kind it is cell-based, human. The settings on record: 1.0 μg/mL, MTT after five days. How it is done:
(§1) The following human tumor cell lines were obtained and cultured in sextuplicate microwells at 37° C. and 5% CO2 in humidified air and in 10% FBS in Eagles MEM: SK—N—FI, SK—N-AS, LS-174T, WiDr, HuTu-80, MCF7, NCI-AR, MES-Sar, and PL-45. Cells from each cell line were separately treated with an amount of one of the compounds of Formula I, II, or III (see Table 1). Cells were exposed to each compound (0.1 μg/mL or 1.0 μg/mL) for one hour or 24 hours, rinsed with drug-free media, and incubated for an additional five days. The number of viable cells after five days was measured using an MTT (3-(4,5-dimethylthiazol-2-yl)-2,5-diphenyltetrazolium bromide) assay (see, e.g., Mosmann, J. Immunol. Methods, 65(1-2), 55-63 (1983)).
(§2) The cytotoxicity of each drug was determined and expressed as the percent of cells killed (“% kill”).

Experiment [2] deals with LS-174T. Put plainly: MTT cytotoxicity assay (% kill), LS-174T. Format: cell-based, human. The settings on record: 1.0 μg/mL, MTT after five days. As to the method:
as §1, §2

The subject of experiment [3] is Colon 38 (murine colon adenocarcinoma). Put plainly: Disk diffusion assay, zone of inhibition, Colon 38; zone differentials, potency and product. Further details: key to C38ΔL1210 / C38ΔCFU: difference of zone of inhibition values, in zone units. The settings on record: for Sum: C38ΔL1210 plus C38ΔCFU; for C38ΔL1210 / C38ΔCFU: difference between zone of inhibition values; for C38ΔL1210: Colon38 vs L1210 leukemia; for C38ΔCFU: Colon38 vs normal cell CFU-GM; for Product: potency multiplied by zone differentials. In kind it is cell-based. As to the method:
A disk diffusion assay was performed to define the differential cell killing ability of 15-O-(3′-hydroxy-3′-isopropyl-4′-methylpentanoyl)bruceolide. Seven cell types were assayed: L1210 (ATCC CCL-219) (murine leukemia), CCRF-CEM (ATCC CCL-119) (human leukemia), Colon 38 (murine colon adenocarcinoma), HCT116 (ATCC CCL-247) (human colorectal carcinoma), H125 (human lung carcinoma). The murine and human granulocyte/macrophage progenitor cell line (CFU-GM), served as controls.
Colon 38 cells (about 1 gram) were cut into small fragments in 15 mL of Hank's Balanced Salt Solution (HBSS) over a 100-mesh sieve and gently forced through by the scissors with HBSS constantly perfusing the sieve. The resulting material was then drawn into and out of a 5 mL syringe without a needle to further disperse the cell clumps. The cell solution was diluted and plated in 0.3% agarose in DMEM plus 10% heat-inactivated Bovine Calf Serum (BCS). For plating of all of the cell types (except controls), the 60 mm plates were first prepared with a hard agar bottom layer (0.6% agar in RPMI-1640 plus 15% BCS).
A 15 μl sample of each compound was dropped onto a 6.5 mm disk (Baxter filter disks). The disks were allowed to dry overnight and then placed close to the edge of a petri dish. Depending upon the cell type, the dishes were incubated for 7 to 10 days, and examined by an inverted stereo-microscope (10×) for measurement of the zone of inhibition. The zone of inhibition was measured from the edge of the filter disk to the beginning of normal-sized colony formation. The diameter of the filter disk, 6.5 mm, was arbitrarily taken as a zone of 200 units. Compounds that were selective for killing solid tumors, as compared to leukemia or normal cells (“solid tumor selective”) were defined as those compounds which produced a difference in zones between solid tumor cells and either normal or leukemia cells of at least 250 units. The results of this analysis are set forth in Table 4, which illustrates the relative diameters of the zones of inhibition by various drugs on the growth of the respective cell types at various drug dilutions.
The degree of differential sensitivity of several inventive compounds was compared with respect to the Colon38 cell line, the L1210 cell line, and the control CFU-GM cell lines. The degree of differential sensitivity was estimated by calculating the difference between the zone of inhibition values, as determined in Example 6, for the solid tumor compared to either the leukemia (C38ΔL1210) or normal cell (C38ΔCFU).
The potency of each of several inventive compounds was determined by identifying the dilution required to yield an average zone of inhibition of 500 units for the Colon38 cell type. Then the potency and the zone differentials were multiplied to define a “product” (see Table 5), which can be used to rank the compounds tested for their potential for further development; the greater the product value the greater the probability of useful chemotherapeutic utility.

The mark [4] stands for this setting: listed as 15-O-(allyloxycarbonyl) bruceolide.

For `C=CCOC(=O)O[C@H]1C(=O)O[C@@H]2C[C@H]3C(C)=C(O)C(=O)C[C@]3(C)[C@H]3[C@@H](O)[C@H](O)[C@@]4(C(=O)OC)OC[C@]32[C@@H]14` [15-O-(allyloxycarbonyl)-bruceolide], in experiment [1] (1 h exposure), the “% Kill, SK-N-AS” value stood at 1%. In addition, the “% Kill, SK-N-AS” value in experiment [1] (24 h exposure) was found to be 43%. For the same molecule, in experiment [2] (1 h exposure), the “% Kill, LS-174T” value was determined as 1%. Also, the “% Kill, LS-174T” value in experiment [2] (24 h exposure) came to 43%. Moreover, in experiment [3], the Sum worked out at 1050, the C38ΔL1210 is listed as 500, the C38ΔCFU stood at 550 and the Product is reported as 4100. Also, in experiment [3] (setting [4]), the Sum is 600, the C38ΔL1210 amounted to 350, the C38ΔCFU was 250 and the Product was 3600.

Turning to `COC(=O)C12OCC34C(CC5C(C)=C(O)C(=O)CC5(C)C3C(O)C1O)OC(=O)C(OC(=O)C1=CCCC1)C24` (centres unmarked) [15-O-(1′-cyclopentenoyl)-bruceolide], the “% Kill, SK-N-AS” value in experiment [1] (1 h exposure) is given as 0%. For the same molecule, the “% Kill, SK-N-AS” value in experiment [1] (24 h exposure) amounted to 0%. For the same molecule, the “% Kill, LS-174T” value in experiment [2] (1 h exposure) is reported as 0%. In addition, the “% Kill, LS-174T” value in experiment [2] (24 h exposure) worked out at 8%. In experiment [3], the Sum stood at 750, the C38ΔL1210 came to 350, the C38ΔCFU was 400 and the Product was 750.

On to `COC(=O)C12OCC34C(CC5C(C)=C(O)C(=O)CC5(C)C3C(O)C1O)OC(=O)C(OC(=O)CC1(O)CCCCC1)C24` (centres unmarked) [15-O-[(1′-hydroxycyclohexyl)-acetyl]-bruceolide], for which the “% Kill, SK-N-AS” value in experiment [1] (1 h exposure) was determined as 16%. In addition, the “% Kill, SK-N-AS” value in experiment [1] (24 h exposure) stood at 80%. In experiment [2] (1 h exposure), the “% Kill, LS-174T” value amounted to 23%. Moreover, the “% Kill, LS-174T” value in experiment [2] (24 h exposure) was 62%. Also, in experiment [3], the Sum was 750, the C38ΔL1210 amounted to 300, the C38ΔCFU stood at 450 and the Product was found to be 3000.

For the molecule `COC(=O)[C@@]12OC[C@]34[C@H]([C@@H](O)[C@@H]1O)[C@@]1(C)CC(=O)C(O)=C(C)[C@@H]1C[C@H]3OC(=O)[C@H](OC(=O)C1=CCCCC1)[C@@H]24` [15-O-(1′-cyclohexenoyl)-bruceolide], the “% Kill, SK-N-AS” value in experiment [1] (1 h exposure) is 0%. The “% Kill, SK-N-AS” value in experiment [1] (24 h exposure) is 5%. The “% Kill, LS-174T” value in experiment [2] (1 h exposure) is reported as 12%. Also, in experiment [2] (24 h exposure), the “% Kill, LS-174T” value was determined as 35%. Further, in experiment [3], the Sum stood at 550, the C38ΔL1210 is 200, the C38ΔCFU came out at 350 and the Product is listed as 550.

On to `COC(=O)C12OCC34C(CC5C(C)=C(O)C(=O)CC5(C)C3C(O)C1O)OC(=O)C(OC(=O)C=C1CCCC1)C24` (centres unmarked) [15-O-(cyclopentylideneacetyl)-bruceolide], for which the “% Kill, SK-N-AS” value in experiment [1] (1 h exposure) is given as 0%. The “% Kill, SK-N-AS” value in experiment [1] (24 h exposure) is 50%. Besides, in experiment [2] (1 h exposure), the “% Kill, LS-174T” value came to 0%. Further, in experiment [2] (24 h exposure), the “% Kill, LS-174T” value stood at 50%. Further, in experiment [3], the Sum is 800, the C38ΔL1210 was 350, the C38ΔCFU is given as 450 and the Product is reported as 4000.

The record behind these values is patent publication US20060281807A1, “Quassinoid compositions for the treatment of cancer and other proliferative diseases” (Tapestry Pharmaceuticals, Inc., priority 2005, published 2006).
